The values that follow come from the supplement of paper PMC10307832.

Assay in all cases: relative viability (nuclei count vs DMSO), 5 days (fraction); higher = more cells survive
Compound in test [1]: CC1(C)CNc2cc(NC(=O)c3cccnc3NCc3ccncc3)ccc21 [Motesanib]
In outline:
(§1)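 Five library-drug doses, separated by factors of √10, were pinned into 1536-well plates holding lung cancer cell lines after an overnight stay at 37 °C. Cells were fixed, permeabilised and Hoechst-stained in one step after 5 days without medium change, then imaged at 4×. Viability compares treated-well with vehicle-well nuclei, counted in MetaXpress, as a median across plates. Passing plates had control CV below 25% and at least one doubling.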

Compound in test [2]: C[C@@]1(C(=O)Nc2ccc(F)nc2)CCCN1c1nc(Nc2cc(C3CC3)n[nH]2)c2cccn2n1
In outline:
as §1

Compound in test [3]: CC1(C)CNc2cc(NC(=O)c3cccnc3NCc3ccncc3)ccc21 [Motesanib] + CC(=O)Nc1cccc(-n2c(=O)n(C3CC3)c(=O)c3c(Nc4ccc(I)cc4F)n(C)c(=O)c(C)c32)c1 [Trametinib] (partner 0.02 µM)
Summed up: (§2)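 Lung cancer cell lines in 1536-well plates were dosed by pin tool the day after seeding, either with one drug alone or with a fixed anchor-drug dose plus five library-drug doses (not always all listed) in √10 steps. After 5 days, cells were fixed and their nuclei stained in one step (final 0.05% Triton X-100, 1% formaldehyde, 1 ug/ml Hoechst), then counted on 4× images. Relative viability is the nuclei count in treated wells divided by that in vehicle wells. Values are medians of duplicate plates.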

Compound in test [4]: C[C@@]1(C(=O)Nc2ccc(F)nc2)CCCN1c1nc(Nc2cc(C3CC3)n[nH]2)c2cccn2n1 + CC1(C)CCC(c2ccc(Cl)cc2)=C(CN2CCN(c3ccc(C(=O)NS(=O)(=O)c4ccc(N[C@H](CCN5CCOCC5)CSc5ccccc5)c(S(=O)(=O)C(F)(F)F)c4)cc3)CC2)C1 [Navitoclax] (partner 0.5 µM)
Summed up: as §2

Regarding NCI-H596, the relative viability in test [1] (0.01 µM) turned out to be 1.2; in test [1] (0.03162 µM) it was 0.921; in test [1] (0.1 µM), 0.928; in test [1] (0.3162 µM), 0.908; in test [1] (1 µM), 0.964; in test [2] (0.04 µM), 1.02. The relative viability in test [2] (0.1265 µM) turned out to be 0.846; in test [2] (0.4 µM), 0.902; in test [2] (1.265 µM) it was 0.939; in test [3] (first compound 0.01 µM), 0.68; in test [3] (first compound 0.03162 µM), 0.918; in test [3] (first compound 0.1 µM), 0.761. For the same cell line, the relative viability in test [3] (first compound 0.3162 µM) came out at 0.798; in test [3] (first compound 1 µM) it was 0.958; in test [4] (first compound 0.04 µM), 1.01; in test [4] (first compound 0.1265 µM) it was 0.809; in test [4] (first compound 0.4 µM) it was 0.921; in test [4] (first compound 1.265 µM), 1.09.
In the case of NCI-H23, the relative viability in test [1] (0.01 µM) stood at 1.02; in test [1] (0.03162 µM), 0.915; in test [1] (0.1 µM) it was 0.758; in test [1] (0.3162 µM) it was 1.08; in test [1] (1 µM), 1.04; in test [2] (0.04 µM) it was 0.788. Besides, the relative viability in test [2] (0.1265 µM) is 0.501; in test [2] (0.4 µM), 0.523; in test [2] (1.265 µM), 0.553; in test [3] (first compound 0.01 µM) it was 0.392; in test [3] (first compound 0.03162 µM), 0.341; in test [3] (first compound 0.1 µM) it was 0.37. Besides, the relative viability in test [3] (first compound 0.3162 µM) worked out at 0.432; in test [3] (first compound 1 µM) it was 0.382; in test [4] (first compound 0.04 µM) it was 0.658; in test [4] (first compound 0.1265 µM), 0.587; in test [4] (first compound 0.4 µM), 0.444; in test [4] (first compound 1.265 µM) it was 0.664.
As to LCLC-97TM1, the relative viability in test [1] (0.01 µM) was 0.895; in test [1] (0.03162 µM) it was 0.961; in test [1] (0.1 µM), 0.95; in test [1] (0.3162 µM) it was 1.03; in test [1] (1 µM), 0.999; in test [2] (0.04 µM), 0.824. For the same cell line, the relative viability amounted to 0.356 in test [2] (0.1265 µM); 0.225 in test [2] (0.4 µM); 0.143 in test [2] (1.265 µM); 0.152 in test [3] (first compound 0.01 µM); 0.202 in test [3] (first compound 0.03162 µM); 0.198 in test [3] (first compound 0.1 µM). The relative viability in test [3] (first compound 0.3162 µM) amounted to 0.226; in test [3] (first compound 1 µM) it was 0.195; in test [4] (first compound 0.04 µM), 0.117; in test [4] (first compound 0.1265 µM), 0.32; in test [4] (first compound 0.4 µM), 0.196; in test [4] (first compound 1.265 µM), 0.324.
EPLC-272H: the relative viability in test [1] (0.01 µM) is 0.918; in test [1] (0.03162 µM) it was 1.04; in test [1] (0.1 µM), 0.761; in test [1] (0.3162 µM), 1.04; in test [1] (1 µM) it was 0.976; in test [2] (0.04 µM) it was 1.04. For the same cell line, the relative viability in test [2] (0.1265 µM) worked out at 0.645; in test [2] (0.4 µM) it was 0.744; in test [2] (1.265 µM), 0.764; in test [3] (first compound 0.01 µM) it was 0.287; in test [3] (first compound 0.03162 µM), 0.289; in test [3] (first compound 0.1 µM), 0.286. For the same cell line, the relative viability came out at 0.299 in test [3] (first compound 0.3162 µM); 0.341 in test [3] (first compound 1 µM); 1.07 in test [4] (first compound 0.04 µM); 1.04 in test [4] (first compound 0.1265 µM); 1.07 in test [4] (first compound 0.4 µM); 1.21 in test [4] (first compound 1.265 µM).
With NCI-H1915, the relative viability in test [1] (0.01 µM) was 0.978; in test [1] (0.03162 µM), 0.988; in test [1] (0.1 µM), 0.908; in test [1] (0.3162 µM), 1.05; in test [1] (1 µM) it was 1.04; in test [2] (0.04 µM), 1. The relative viability is 1.06 in test [2] (0.1265 µM); 0.982 in test [2] (0.4 µM); 0.982 in test [2] (1.265 µM); 0.209 in test [3] (first compound 0.01 µM); 0.338 in test [3] (first compound 0.03162 µM); 0.318 in test [3] (first compound 0.1 µM). Moreover, the relative viability in test [3] (first compound 0.3162 µM) turned out to be 0.288; in test [3] (first compound 1 µM), 0.365; in test [4] (first compound 0.04 µM), 0.774; in test [4] (first compound 0.1265 µM), 0.767; in test [4] (first compound 0.4 µM) it was 0.836; in test [4] (first compound 1.265 µM), 0.779.
